Read-outs that look alike come from different tables or passages of the source.
How the values were obtained:
albumin in serum = test system: albumin in serum; parameters: method as in Han et al. [2003]; conditions: ref Han et al. [2003]; cited from earlier work
[1] = Extractable organofluorine (EOF) and fluorine mass balance in plasma and tissues at 48 h; format: in vivo, rat; conditions: for concentration at 48 h: male, RccHan:WIST, rat, read-out: PFOA-fluorine equivalent
Procedure: Plasma and tissue samples taken at 48 h after exposure were subjected to EOF analysis. Extraction procedure followed the procedure described above with the exception that no mass labelled internal standards were spiked to the samples before extraction. The EOF content of the 1 mL extract was analyzed by combustion ion chromatography (CIC). Part of the extract (200 μL) was transferred to a LC vial with the addition of 10 μL of mass-labelled standards; after that, aqueous ammonium acetate (2 mM, 300 μL) was added to the vial for PFAS analysis using LC-MS/MS. The reported EOF concentrations as well as the concentration of PFOA for mass balance analysis were not recovery-corrected.
Levels of EOF in the sample extracts were determined with a combustion ion chromatography (CIC) system consisting of a combustion module (Analytik Jena, Germany), a 920 Absorber Module and a 930 Compact IC Flex ion chromatograph module (both from Metrohm, Switzerland). An ion exchange column (Metrosep A Supp 5–150/4.0), with carbonate buffer (64 mmol/L sodium carbonate and 20 mmol/L sodium bicarbonate) as the mobile phase, was used for the separation of anions; the absorber solution was water. The sample extract (100 μL) was set on a silica boat via an autosampler and placed into a furnace at 900–1000 °C. The combustion of the sample in the furnace converted organic fluorine and inorganic fluorine into hydrogen fluoride (HF), which was then trapped by MilliQ water. The fluoride concentration in the solution was analyzed using ion chromatography. […] Quantification was based on external calibration. The analytical conditions for ion chromatography have been reported elsewhere (Kärrman et al. [2021]).
The measured PFOA concentration (ng/mL) in the sample extract of the EOF analysis was converted to the corresponding fluoride-equivalent concentration (ng/mL F) using the following formula:1 CFPFAS=CPFAS*NF*AF/MWPFAS where CPFAS is the concentration of the target compound (i.e., PFOA), NF is the number of fluorine atoms in the target compound (i.e., 15), AF is the atomic weight of fluorine (g/mol, i.e., 19), and MWPFAS is the molecular weight of the target compound (i.e., 413). The sum of known extractable fluorine concentration (ΣCF_PFAS) was calculated by summing the fluorine concentrations from all individual PFASs. Values below limits of quantification (LOQ) were set for calculating ΣCF_PFAS. Levels of unidentified organofluorine were calculated by subtracting […], which in this present study only PFOA.

O=C(O)C(F)(F)C(F)(F)C(F)(F)C(F)(F)C(F)(F)C(F)(F)C(F)(F)F [PFOA, Perfluorooctanoic acid]
PFOA bound to albumin in serum (albumin in serum): more than 90%
Proportion of PFOA to EOF in plasma ([1]; both exposure groups): 65–71%
Contribution to EOF (%) ([1]; kidney, inhalation): 81%
Contribution to EOF (%) ([1]; kidney, oral): 83%
Contribution to EOF (%) ([1]; liver, inhalation): 87%
Contribution to EOF (%) ([1]; liver, oral): 83%
Contribution to EOF (%) ([1]; lung lavage, inhalation): 76%
Contribution to EOF (%) ([1]; lung lavage, oral): 84%
Contribution to EOF (%) ([1]; lung, inhalation): 86%
Contribution to EOF (%) ([1]; lung, oral): 74%
concentration at 48 h ([1]; 364 μg PFOA/kg BW, kidney, oral): 2160 ± 130 ng/g
concentration at 48 h ([1]; 364 μg PFOA/kg BW, liver, oral): 6140 ± 340 ng/g
concentration at 48 h ([1]; 364 μg PFOA/kg BW, lung, oral): 1160 ± 210 ng/g
concentration at 48 h ([1]; 364 μg PFOA/kg BW, plasma, oral, not recovery-corrected): 1420 ± 240 ng/mL
concentration at 48 h ([1]; inhaled, 164 μg PFOA/kg BW, kidney, inhalation): 2640 ± 530 ng/g
concentration at 48 h ([1]; inhaled, 164 μg PFOA/kg BW, liver, inhalation): 6950 ± 650 ng/g
concentration at 48 h ([1]; inhaled, 164 μg PFOA/kg BW, lung, inhalation): 21500 ± 2750 ng/g
concentration at 48 h ([1]; inhaled, 164 μg PFOA/kg BW, plasma, inhalation, not recovery-corrected): 1530 ± 170 ng/mL
concentration at 48 h ([1]; lung lavage (BALF), 364 μg PFOA/kg BW, lung lavage, oral): 210 ± 20 ng/mL
concentration at 48 h ([1]; lung lavage (BALF), inhaled, 164 μg PFOA/kg BW, lung lavage, inhalation): 6870 ± 430 ng/mL
Share of EOF levels explained by measured PFOA, all samples ([1]; plasma and tissues): 65–87%
Contribution to EOF (%) ([1]; plasma, oral): 65%
